Experimental findings from patent US20100041642A1, “UREA INHIBITORS OF MAP KINASES” (LOCUS PHARMACEUTICALS, INC., priority 2008, published 2010) are described below.

This test concerns the target p38 (Homo sapiens, UniProt Q16539). The test is described as follows: Protein Kinase Assay (33P incorporation from γ-[33P]ATP into GST-ATF-2). Format: biochemical. Conditions: 2 nM p38, preincubated 20 min at 30° C.; 10 uM cold ATP, 2 uM GST-ATF2, 70 min; read-out: ACT. (Activity), IC50 category in Protein Kinase Assay. In a few lines:
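Compounds preincubated 20 min at 30 °C with 2 nM p38; reaction started with 2 uM GST-ATF-2 (aa 19-96) and 10 uM ATP plus γ-[33P]ATP, pH 7.5, 70 min at 30 °C, 2% DMSO. Phosphoric acid stop; 33P-labelled substrate captured on phosphocellulose and counted by scintillation.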

Chain of p38 (Q16539 whole entry, the tested form may be a part): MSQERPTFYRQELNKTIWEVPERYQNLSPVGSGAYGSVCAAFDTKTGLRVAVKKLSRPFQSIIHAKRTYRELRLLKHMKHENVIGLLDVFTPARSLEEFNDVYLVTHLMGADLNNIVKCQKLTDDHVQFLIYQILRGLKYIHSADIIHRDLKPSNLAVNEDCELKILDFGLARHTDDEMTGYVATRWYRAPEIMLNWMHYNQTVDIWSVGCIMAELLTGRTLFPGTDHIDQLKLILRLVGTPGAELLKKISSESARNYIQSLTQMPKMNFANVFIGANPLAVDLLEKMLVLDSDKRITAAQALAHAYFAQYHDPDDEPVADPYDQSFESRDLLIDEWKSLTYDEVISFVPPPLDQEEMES

What is called IC50 is the concentration that inhibits the measured activity by half. `CC(C)(C)c1cc(C(=O)N2CCNC(=O)C2(C)C)c(NC(=O)Nc2cccc(-c3ccncc3)c2)s1` [1-(5-tert-butyl-3-(2,2-dimethyl-3-oxopiperazine-1-carbonyl)thiophen-2-yl)-3-(3-(pyridin-4-yl)phenyl)urea]: the IC50 was less than 100 nM.
For the compound `Cc1ccc(NC(=O)Nc2sc(C(C)(C)C)cc2C(=O)N2CCNC(=O)C2(C)C)cc1C#N` [1-(5-tert-butyl-3-(2,2-dimethyl-3-oxopiperazine-1-carbonyl)thiophen-2-yl)-3-(3-cyano-4-methylphenyl)urea], the IC50 is less than 100 nM.
`C#Cc1cc(NC(=O)Nc2sc(C(C)(C)C)cc2C(=O)N2CCNC(=O)C2(C)C)ccc1C` [1-(5-tert-butyl-3-(2,2-dimethyl-3-oxopiperazine-1-carbonyl)thiophen-2-yl)-3-(3-ethynyl-4-methylphenyl)urea]: the IC50 is less than 100 nM.
With `COc1ccc(-c2cc(NC(=O)Nc3sc(C(C)(C)C)cc3C(=O)N3CCNC(=O)C3(C)C)cc(F)c2C)cn1` [1-(5-tert-butyl-3-(2,2-dimethyl-3-oxopiperazine-1-carbonyl)thiophen-2-yl)-3-(3-fluoro-5-(6-methoxypyridin-3-yl)-4-methylphenyl)urea], the half-inhibitory concentration (IC50) was less than 100 nM.
The same measure for `CC(C)(C)c1cc(C(=O)N2CCNC(=O)C2(C)C)c(NC(=O)Nc2cccc(N3CCOCC3)c2)s1` [1-(5-tert-butyl-3-(2,2-dimethyl-3-oxopiperazine-1-carbonyl)thiophen-2-yl)-3-(3-morpholinophenyl)urea]: less than 10000 nM; for `CC(C)(C)c1cc(C(=O)N2CCNC(=O)C2(C)C)c(NC(=O)Nc2ccc(F)c(-c3ccc(OCCN4CCOCC4)nc3)c2)s1` [1-(5-tert-butyl-3-(2,2-dimethyl-3-oxopiperazine-1-carbonyl)thiophen-2-yl)-3-(4-fluoro-3-(6-(2-morpholinoethoxy)pyridin-3-yl)phenyl)urea]: less than 100 nM; for `COc1ccc(NC(=O)Nc2sc(C(C)(C)C)cc2C(=O)N2CCNC(=O)C2(C)C)c(C)c1-c1ccncc1` [1-(5-tert-butyl-3-(2,2-dimethyl-3-oxopiperazine-1-carbonyl)thiophen-2-yl)-3-(4-methoxy-2-methyl-3-(pyridin-4-yl)phenyl)urea]: less than 100 nM.
The same measure for `COc1ccc(NC(=O)Nc2sc(C(C)(C)C)cc2C(=O)N2CCNC(=O)C2(C)C)cc1-c1ccncc1` [1-(5-tert-butyl-3-(2,2-dimethyl-3-oxopiperazine-1-carbonyl)thiophen-2-yl)-3-(4-methoxy-3-(pyridin-4-yl)phenyl)urea]: less than 100 nM; for `Cc1ccc(NC(=O)Nc2sc(C(C)(C)C)cc2C(=O)N2CCNC(=O)C2(C)C)cc1C#C[Si](C)(C)C` [1-(5-tert-butyl-3-(2,2-dimethyl-3-oxopiperazine-1-carbonyl)thiophen-2-yl)-3-(4-methyl-3-(2-(trimethylsilyl)ethynyl)phenyl)urea]: less than 100 nM.
For the compound `Cc1ccc(NC(=O)Nc2sc(C(C)(C)C)cc2C(=O)N2CCNC(=O)C2(C)C)cc1-c1cnc(N2CCOCC2)nc1` [1-(5-tert-butyl-3-(2,2-dimethyl-3-oxopiperazine-1-carbonyl)thiophen-2-yl)-3-(4-methyl-3-(2-morpholinopyrimidin-5-yl)phenyl)urea], the IC50 was less than 100 nM.
To `Cc1ccc(NC(=O)Nc2sc(C(C)(C)C)cc2C(=O)N2CCNC(=O)C2(C)C)cc1C#CCOCCN1CCOCC1` [1-(5-tert-butyl-3-(2,2-dimethyl-3-oxopiperazine-1-carbonyl)thiophen-2-yl)-3-(4-methyl-3-(3-(2-morpholinoethoxy)prop-1-ynyl)phenyl)urea] belongs less than 100 nM; to `Cc1ccc(NC(=O)Nc2sc(C(C)(C)C)cc2C(=O)N2CCNC(=O)C2(C)C)cc1C#CCN1CCN(C)CC1` [1-(5-tert-butyl-3-(2,2-dimethyl-3-oxopiperazine-1-carbonyl)thiophen-2-yl)-3-(4-methyl-3-(3-(4-methylpiperazin-1-yl)prop-1-ynyl)phenyl)urea], less than 100 nM.
The same measure for `Cc1ccc(NC(=O)Nc2sc(C(C)(C)C)cc2C(=O)N2CCNC(=O)C2(C)C)cc1C#CCOC1CCOCC1` [1-(5-tert-butyl-3-(2,2-dimethyl-3-oxopiperazine-1-carbonyl)thiophen-2-yl)-3-(4-methyl-3-(3-(tetrahydro-2H-pyran-4-yloxy)prop-1-ynyl)phenyl)urea]: less than 100 nM; for `Cc1ccc(NC(=O)Nc2sc(C(C)(C)C)cc2C(=O)N2CCNC(=O)C2(C)C)cc1N1C(=O)CN(C)C1=O` [1-(5-tert-butyl-3-(2,2-dimethyl-3-oxopiperazine-1-carbonyl)thiophen-2-yl)-3-(4-methyl-3-(3-methyl-2,5-dioxoimidazolidin-1-yl)phenyl)urea]: less than 100 nM.
The same measure for `Cc1ccc(NC(=O)Nc2sc(C(C)(C)C)cc2C(=O)N2CCNC(=O)C2(C)C)cc1C#CCN1CCOCC1` [1-(5-tert-butyl-3-(2,2-dimethyl-3-oxopiperazine-1-carbonyl)thiophen-2-yl)-3-(4-methyl-3-(3-morpholinoprop-1-ynyl)phenyl)urea]: less than 100 nM.
As for `Cc1ccc(NC(=O)Nc2sc(C(C)(C)C)cc2C(=O)N2CCNC(=O)C2(C)C)cc1-c1ccc(N2CCN(C)CC2)cn1` [1-(5-tert-butyl-3-(2,2-dimethyl-3-oxopiperazine-1-carbonyl)thiophen-2-yl)-3-(4-methyl-3-(5-(4-methylpiperazin-1-yl)pyridin-2-yl)phenyl)urea], the IC50 is less than 100 nM.
The same measure for `Cc1ccc(NC(=O)Nc2sc(C(C)(C)C)cc2C(=O)N2CCNC(=O)C2(C)C)cc1-c1ccc(CN2CCOCC2)cn1` [1-(5-tert-butyl-3-(2,2-dimethyl-3-oxopiperazine-1-carbonyl)thiophen-2-yl)-3-(4-methyl-3-(5-(morpholinomethyl)pyridin-2-yl)phenyl)urea]: less than 100 nM.
To `Cc1ccc(NC(=O)Nc2sc(C(C)(C)C)cc2C(=O)N2CCNC(=O)C2(C)C)cc1-c1ccc(N2CCOCC2)cn1` [1-(5-tert-butyl-3-(2,2-dimethyl-3-oxopiperazine-1-carbonyl)thiophen-2-yl)-3-(4-methyl-3-(5-morpholinopyridin-2-yl)phenyl)urea] belongs less than 100 nM.
Turning to `Cc1ccc(NC(=O)Nc2sc(C(C)(C)C)cc2C(=O)N2CCNC(=O)C2(C)C)cc1-c1ccc(OCCN2CCNCC2)nc1` [1-(5-tert-butyl-3-(2,2-dimethyl-3-oxopiperazine-1-carbonyl)thiophen-2-yl)-3-(4-methyl-3-(6-(2-(piperazin-1-yl)ethoxy)pyridin-3-yl)phenyl)urea], the IC50 is less than 100 nM.
On to `Cc1ccc(NC(=O)Nc2sc(C(C)(C)C)cc2C(=O)N2CCNC(=O)C2(C)C)cc1-c1ccc(OCCN2CCCCC2)nc1` [1-(5-tert-butyl-3-(2,2-dimethyl-3-oxopiperazine-1-carbonyl)thiophen-2-yl)-3-(4-methyl-3-(6-(2-(piperidin-1-yl)ethoxy)pyridin-3-yl)phenyl)urea], for which the IC50 was less than 100 nM.
Consider `Cc1ccc(NC(=O)Nc2sc(C(C)(C)C)cc2C(=O)N2CCNC(=O)C2(C)C)cc1-c1ccc(OCCN2CCOCC2)nc1` [1-(5-tert-butyl-3-(2,2-dimethyl-3-oxopiperazine-1-carbonyl)thiophen-2-yl)-3-(4-methyl-3-(6-(2-morpholinoethoxy)pyridin-3-yl)phenyl)urea], for which the IC50 is less than 100 nM.
